From PubChem BioAssay AID2060495 (Molecular Pharmacology Branch, DTP, NCI, 2025)

Tested on: 521955-158-R2-J5-PDC complex spheroid viability
Assay: Anticancer human tumor 521955-158-R2-J5-PDC patient-derived pancreatic carcinoma cell line growth inhibition [GQUAD]
Conditions: for viability, T/C: stronger effect = lower value
Text: DNA G-quadruplex Stabilizer Agents in Combinations in Complex Spheroids
A high-throughput screen of multi-cell type tumor spheroids was designed to identify active combinations of DNA G-quadruplex stabilizer agents and targeted small molecules. Complex spheroids include a stromal component modeled by human endothelial cells (HUVEC) and fibroblasts modeled by human mesenchymal stem cells (MSCs). The concentration ranges selected for each drug and investigational agent were based upon clinically achievable concentrations if the clinical Cmax of the agent was known.
Compounds. The drugs and investigational agents: pidnarulex (CX-5461; NSC782164), APTO-253 (NSC789042), BRACO-19 (NSC847499), peposertib (NSC802822), ceralasertib (NSC780249), elimusertib (NSC800525), camonsertib (NSC841442), AZD-1390 (NSC803789), olaparib (NSC753686), talazoparib (NSC767125), ART-558 (NSC835418), sotorasib (NSC818433), MRTX-1133 (NSC836407), SN-38 (NSC673596), topotecan (NSC609699), etoposide (NSC141540), doxorubicin (NSC123127), gemcitabine (NSC613327), 5-fluorouracil (NSC19893), paclitaxel (NSC125973), vemurafenib (NSC761431), panobinostat (NSC761190), R-306465 (JNJ-16241199; NSC773264), adavosertib (NSC754352), TP-3654 (NSC805149), carboplatin (NSC241240), KSQ-4279 (NSC840948), and staurosporine (NSC755774) were obtained from the National Cancer Institute (NCI) Developmental Therapeutics Program Chemical Repository (34). The FDA-approved anticancer drug set is available from the NCI Developmental Therapeutics Program. […] The stock solutions were prepared in dimethyl sulfoxide (DMSO, Sigma-Aldrich, St. Louis, MO, cat. D2650) at 800-fold the tested concentration and stored at -70 degrees C prior to their use. All drugs and investigational agents were tested over a range starting from a high concentration at or near the clinical Cmax and decreasing in half-log increments. If the clinical Cmax for an agent had not been determined, the highest concentration tested was 10 microM.
2.3 Cell Culture. All cells were maintained in an incubator at 37 degrees C and 5% CO2 with 95% humidity. The PDC lines were cultured according to standard operating procedures established by the NCI PDMR. All PDCs were thawed and cultured in Matrigel-coated flasks prepared with a working solution of 1X Ham's F-12 nutrient mix, without supplementation (Invitrogen, cat. 11765054), 100 U/mL penicillin-streptomycin (Invitrogen, cat. 15140122), and 2.5% Matrigel (Corning Inc., cat. 354248) for the first three passages. The 857933-349-R-J2-PDC line was cultured in 6C/Colon 1B media, which includes advanced DMEM/F-12 (Thermo Fisher Scientific, cat. 12634028), 10 mM HEPES (Thermo Fisher Scientific, cat. 15630080), 1X GlutaMAX supplement (Thermo Fisher Scientific, cat. 35050061), 0.1 mg/mL primocin (InvivoGen, cat. ant-pm-2), 10% defined fetal bovine serum, heat inactivated (HyClone Laboratories Inc., cat. SH30070.03HI), 50% L-WRN conditioned media (ATCC, cat. CRL-3276), 1.25 mM N-Acetyl-L-cysteine (Sigma-Aldrich, cat. A9165), 10 mM nicotinamide (Sigma-Aldrich, cat. N0636), 1X B-27 supplement (Thermo Fisher Scientific, cat. 17504044), 1X N-2 supplement (Thermo Fisher Scientific, cat. 17502048), 10 microM Y-27632 dihydrochloride (Tocris Bioscience, cat. 1254), and 50 ng/mL human EGF recombinant protein (Thermo Fisher Scientific, cat. PHG0311). The 485176-168-R4-J1-PDC line was cultured in Panc media, which includes all 6C/Colon 1B media components plus 100 ng/mL human FGF-10 (Thermo Fisher Scientific, cat. 100-26), 500 nM SB-431542 (Selleckchem, cat. S1067), and gastrin (Tocris, cat. 3006).
[…]

[1] = curve of first compound, second compound 0.0316 µM
[2] = curve of first compound, second compound 0.1 µM
[3] = curve of first compound, second compound 0.316 µM
[4] = curve of first compound, second compound 1 µM
[5] = curve of first compound, second compound 3.16 µM
[6] = curve of first compound, second compound 10 µM
[7] = second compound 0.0316 µM, first compound 0.0316 µM
[8] = second compound 0.0316 µM, first compound 0.1 µM
[9] = second compound 0.0316 µM, first compound 0.316 µM
[10] = second compound 0.0316 µM, first compound 1 µM
[11] = second compound 0.0316 µM, first compound 3.16 µM
[12] = second compound 0.0316 µM, first compound 10 µM
[13] = second compound 0.1 µM, first compound 0.0316 µM
[14] = second compound 0.1 µM, first compound 0.1 µM
[15] = second compound 0.1 µM, first compound 0.316 µM
[16] = second compound 0.1 µM, first compound 1 µM
[17] = second compound 0.1 µM, first compound 3.16 µM
[18] = second compound 0.1 µM, first compound 10 µM
[19] = second compound 0.316 µM, first compound 0.0316 µM
[20] = second compound 0.316 µM, first compound 0.1 µM
[21] = second compound 0.316 µM, first compound 0.316 µM
[22] = second compound 0.316 µM, first compound 1 µM
[23] = second compound 0.316 µM, first compound 3.16 µM
[24] = second compound 0.316 µM, first compound 10 µM
[25] = second compound 1 µM, first compound 0.0316 µM
[26] = second compound 1 µM, first compound 0.1 µM
[27] = second compound 1 µM, first compound 0.316 µM
[28] = second compound 1 µM, first compound 1 µM
[29] = second compound 1 µM, first compound 3.16 µM
[30] = second compound 1 µM, first compound 10 µM
[31] = second compound 3.16 µM, first compound 0.0316 µM
[32] = second compound 3.16 µM, first compound 0.1 µM
[33] = second compound 3.16 µM, first compound 0.316 µM
[34] = second compound 3.16 µM, first compound 1 µM
[35] = second compound 3.16 µM, first compound 3.16 µM
[36] = second compound 3.16 µM, first compound 10 µM
[37] = second compound 10 µM, first compound 0.0316 µM
[38] = second compound 10 µM, first compound 0.1 µM
[39] = second compound 10 µM, first compound 0.316 µM
[40] = second compound 10 µM, first compound 1 µM
[41] = second compound 10 µM, first compound 3.16 µM
[42] = second compound 10 µM, first compound 10 µM
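Further: spheroids exposed to agents for one week before reading.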
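Wherever viability, T/C is given: 100% = DMSO vehicle control viability.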

Q: For `COc1cccc2c1C(=O)c1c(O)c3c(c(O)c1C2=O)CC(O)(C(=O)CO)CC3OC1CC(N)C(O)C(C)O1` (stereo not given) + Cc1[nH]c2ccc(F)cc2c1-c1nc2c3cccnc3c3ncccc3c2[nH]1, which IC50 [1] is on record?
A: 150 nM

Q: What about the IC50 [2] of the same compound?
A: 193 nM

Q: And the IC50 [3]?
A: 188 nM

Q: And the IC50 [4]?
A: 130 nM

Q: What about the IC50 [5] of the same compound?
A: 156 nM

Q: What about the IC50 [6] of the same compound?
A: 182 nM

Q: What about the viability, T/C [7] of the same compound?
A: 102%

Q: What about the viability, T/C [8] of the same compound?
A: 60.3%

Q: What about the viability, T/C [9] of the same compound?
A: 31.3%

Q: What about the viability, T/C [10] of the same compound?
A: 13.2%

Q: What about the viability, T/C [11] of the same compound?
A: 5.72%

Q: And the viability, T/C [12]?
A: 0.72%

Q: What about the viability, T/C [13] of the same compound?
A: 92.3%

Q: And the viability, T/C [14]?
A: 72.2%

Q: What about the viability, T/C [15] of the same compound?
A: 32.9%

Q: And the viability, T/C [16]?
A: 11%

Q: And the viability, T/C [17]?
A: 5.83%

Q: And the viability, T/C [18]?
A: 0.27%

Q: What about the viability, T/C [19] of the same compound?
A: 88.4%

Q: And the viability, T/C [20]?
A: 72.9%

Q: What about the viability, T/C [21] of the same compound?
A: 30%

Q: And the viability, T/C [22]?
A: 13.7%

Q: What about the viability, T/C [23] of the same compound?
A: 3.99%

Q: And the viability, T/C [24]?
A: 0.46%

Q: What about the viability, T/C [25] of the same compound?
A: 90.1%

Q: What about the viability, T/C [26] of the same compound?
A: 57.7%

Q: And the viability, T/C [27]?
A: 25.4%

Q: And the viability, T/C [28]?
A: 14.1%

Q: And the viability, T/C [29]?
A: 5.66%

Q: What about the viability, T/C [30] of the same compound?
A: 0.41%

Q: And the viability, T/C [31]?
A: 85.7%

Q: What about the viability, T/C [32] of the same compound?
A: 65.6%

Q: And the viability, T/C [33]?
A: 24.5%

Q: What about the viability, T/C [34] of the same compound?
A: 17.2%

Q: What about the viability, T/C [35] of the same compound?
A: 4.87%

Q: And the viability, T/C [36]?
A: 0.33%

Q: What about the viability, T/C [37] of the same compound?
A: 97.5%

Q: What about the viability, T/C [38] of the same compound?
A: 73.6%

Q: And the viability, T/C [39]?
A: 27.5%

Q: And the viability, T/C [40]?
A: 12.1%

Q: And the viability, T/C [41]?
A: 9.02%

Q: And the viability, T/C [42]?
A: 0.29%

Q: For `Cc1cnc(CNC(=O)c2c(=O)c3ccc(N4CCCN(C)CC4)nc3n3c2sc2ccccc23)cn1`, which viability, T/C (compound 0.0316 µM) is on record?
A: 79.7% [middle of 12 runs]

Q: What about the viability, T/C (compound 0.316 µM) of the same compound?
A: 38.2% [middle of 12 runs]

Q: And the viability, T/C (compound 1 µM)?
A: 22.1% [middle of 12 runs]

Q: And the viability, T/C (compound 3.16 µM)?
A: 20.7% [middle of 12 runs]

Q: What about the viability, T/C (compound 10 µM) of the same compound?
A: 18.8% [middle of 12 runs]

Q: And the IC50 (compound alone, run of 04/16/2024)?
A: 137 nM [middle of 11 runs]

Q: `CC(=O)O[C@H]1C(=O)[C@@]2(C)[C@H]([C@H](OC(=O)c3ccccc3)[C@]3(O)C[C@H](OC(=O)[C@H](O)[C@@H](NC(=O)c4ccccc4)c4ccccc4)C(C)=C1C3(C)C)[C@]1(OC(C)=O)CO[C@@H]1C[C@@H]2O` + Cc1cnc(CNC(=O)c2c(=O)c3ccc(N4CCCN(C)CC4)nc3n3c2sc2ccccc23)cn1 was tested. Which IC50 [1] did it give?
A: < 31.6 nM

Q: What about the IC50 [2] of the same compound?
A: < 31.6 nM

Q: And the IC50 [3]?
A: < 31.6 nM

Q: What about the IC50 [4] of the same compound?
A: < 31.6 nM

Q: What about the IC50 [5] of the same compound?
A: < 31.6 nM

Q: And the IC50 [6]?
A: < 31.6 nM

Q: What about the viability, T/C [7] of the same compound?
A: 23.3%

Q: And the viability, T/C [8]?
A: 14.8%

Q: What about the viability, T/C [9] of the same compound?
A: 11.8%

Q: And the viability, T/C [10]?
A: 13.7%

Q: What about the viability, T/C [11] of the same compound?
A: 11.2%

Q: And the viability, T/C [12]?
A: 12.1%

Q: What about the viability, T/C [13] of the same compound?
A: 24.5%

Q: What about the viability, T/C [14] of the same compound?
A: 15.2%

Q: And the viability, T/C [15]?
A: 15.3%

Q: What about the viability, T/C [16] of the same compound?
A: 10.4%

Q: And the viability, T/C [17]?
A: 12%

Q: What about the viability, T/C [18] of the same compound?
A: 14.6%

Q: What about the viability, T/C [19] of the same compound?
A: 24.6%

Q: And the viability, T/C [20]?
A: 16.7%

Q: What about the viability, T/C [21] of the same compound?
A: 12.1%

Q: What about the viability, T/C [22] of the same compound?
A: 10.6%

Q: What about the viability, T/C [23] of the same compound?
A: 12%

Q: What about the viability, T/C [24] of the same compound?
A: 12.1%

Q: What about the viability, T/C [25] of the same compound?
A: 15.1%

Q: What about the viability, T/C [26] of the same compound?
A: 11%

Q: And the viability, T/C [27]?
A: 8.58%

Q: What about the viability, T/C [28] of the same compound?
A: 9.85%

Q: What about the viability, T/C [29] of the same compound?
A: 10.3%

Q: What about the viability, T/C [30] of the same compound?
A: 8.46%

Q: And the viability, T/C [31]?
A: 9.56%

Q: What about the viability, T/C [32] of the same compound?
A: 3.21%

Q: And the viability, T/C [33]?
A: 0.92%

Q: What about the viability, T/C [34] of the same compound?
A: 0.43%

Q: What about the viability, T/C [35] of the same compound?
A: 0.28%

Q: And the viability, T/C [36]?
A: 3.89%

Q: And the viability, T/C [37]?
A: 0.14%

Q: What about the viability, T/C [38] of the same compound?
A: 2.35%

Q: What about the viability, T/C [39] of the same compound?
A: 0.16%

Q: And the viability, T/C [40]?
A: 0.27%

Q: What about the viability, T/C [41] of the same compound?
A: 2.45%

Q: What about the viability, T/C [42] of the same compound?
A: 0.15%
